Among the data in patent publication US10975118B2, “Crystalline dipeptides useful in the synthesis of elamipretide” (Stealth BioTherapeutics Corp., priority 2018, dated 2021) are Stability of material and solubility values, retold here.

In brackets after ≈: the same amount, converted by molar mass. Where a SMILES comes first, the peptide text is derived from it. [ ]: non-standard residue; d: D form. The star is where a group is joined. Dmt = Cc1cc(O)cc(C)c1C[C@H](N)C(=O)O; Boc = CC(C)(C)OC(=O)*

What all share (format): physicochemical
A short description of data set [1]: Stability and handling of the isolated zwitterionic form (statement). The conditions noted are these: solid isolated from CH3OH/H2O with Na2CO3. The protocol:
Preparation of the Zwitterionic Form of Compound II
[drawing 5] • 1. The crude HCl salt is suspended in CH3OH/H2O (1/1, v/v) • 2. The suspension is heated to 45-50° C. • 3. After the clear solution is formed, an aqueous solution of Na2CO3 (1.2 eq.) is added. During the addition, the solid begins to precipitate. • 4. The suspension is stirred for 1 h at 45° C., and then cooled to 15° C. and stirred for an additional hour. • 5. The solid is isolated by filtration and dried to provide Compound II with high purity (99.4 area %) by HPLC.
Formation of zwitterionic compound led to high purity material that was stable, easily handled, and highly crystalline.

A short description of data set [2]: In process precipitation results (MeOH/water). The conditions noted are these: aqueous with cosolvent or surfactant or cyclodextrin. An excerpt:
In Process Precipitation Results (MeOH/Water) of Compound I: […]

Data set [3] can be described thus: Preliminary precipitation studies (MeOH/water). Particulars: aqueous with cosolvent or surfactant or cyclodextrin, Normal addition, 10 mL/g, 25° C. The source says:
Preliminary Precipitation Studies (MeOH/Water) of Compound I: […]

A short description of data set [4]: Preliminary single-solvent solubility, determined by HPLC (response curve). The source says: Preliminary Single-Solvent Solubility of Compound I: […]

Take `Cc1cc(O)cc(C)c1C[C@H](NC(=O)[C@@H](CCCNC(=N)N)NC(=O)OC(C)(C)C)C(=O)O` [Compound II, Boc-D-Arg-DMT] (Boc-[dR]-[Dmt]-OH): in data set [1], the Stability of material result was “stable”.
As usually defined, the solubility is how much of the substance goes into solution per volume. With `CC(C)(C)OC(=O)NCCCC[C@H](N)C(=O)N[C@@H](Cc1ccccc1)C(N)=O` [Compound I, L-Lys(Boc)-Phe-NH2], the solubility in data set [2] (Experiment 2447-41, MeOH/Water 1:9, 13 mL/g) was found to be 2500 µg/mL (≈ 6.37 mM); in data set [2] (Experiment 2447-47, MeOH/Water 1:5, 10 mL/g), 4200 µg/mL (≈ 10.7 mM); in data set [3] (Experiment 1, MeOH/Water 1:3) it was 7000 µg/mL (≈ 17.8 mM); in data set [3] (Experiment 2, MeOH/Water 1:5), 5000 µg/mL (≈ 12.7 mM); in data set [3] (Experiment 3, MeOH/Water 1:9), 3600 µg/mL (≈ 9.17 mM); in data set [3] (Experiment 4, MeOH/Water 1:19) it was 2700 µg/mL (≈ 6.88 mM). Further, the solubility in data set [4] (organic solvent or mixture, solvent EtOH (SDAG-7)) is 155000 µg/mL (≈ 394 mM); in data set [4] (organic solvent or mixture, solvent MeOAc), 18200 µg/mL (≈ 46.4 mM); in data set [4] (organic solvent or mixture, solvent THF), 84500 µg/mL (≈ 215 mM); in data set [4] (organic solvent or mixture, solvent iPrOAc), 5100 µg/mL (≈ 13 mM); in data set [4] (solvent Water), 4100 µg/mL (≈ 10.4 mM).
